From the supplement of paper PMC10307832

How the values were obtained:
Experiment in all cases: relative viability (nuclei count vs DMSO), 5 days (fraction); higher = more cells survive
Tipifarnib + Crizotinib = compound: Cn1cncc1[C@@](N)(c1ccc(Cl)cc1)c1ccc2c(c1)c(-c1cccc(Cl)c1)cc(=O)n2C [Tipifarnib] + C[C@@H](Oc1cc(-c2cnn(C3CCNCC3)c2)cnc1N)c1c(Cl)ccc(F)c1Cl [Crizotinib] (partner 1 µM)
In short: (§1)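 The day after seeding in 1536-well plates, lung cancer cell lines were treated by pin tool with a single drug, or with a fixed anchor-drug dose together with five library-drug doses (not always all listed) in √10 steps. After 5 days, a combined fix-and-stain solution (final 0.05% Triton X-100, 1% formaldehyde, 1 ug/ml Hoechst) was added. Nuclei counted on 4× images gave relative viability as treated counts over vehicle counts, reported as the median of duplicate plates.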

Tipifarnib + Palbociclib = compound: Cn1cncc1[C@@](N)(c1ccc(Cl)cc1)c1ccc2c(c1)c(-c1cccc(Cl)c1)cc(=O)n2C [Tipifarnib] + CC(=O)c1c(C)c2cnc(Nc3ccc(N4CCNCC4)cn3)nc2n(C2CCCC2)c1=O [Palbociclib] (partner 0.5 µM)
In short: as §1

Tipifarnib + Vorinostat = compound: Cn1cncc1[C@@](N)(c1ccc(Cl)cc1)c1ccc2c(c1)c(-c1cccc(Cl)c1)cc(=O)n2C [Tipifarnib] + O=C(CCCCCCC(=O)Nc1ccccc1)NO [Vorinostat] (partner 1 µM)
In short: as §1

Tipifarnib + AZD7762 = compound: Cn1cncc1[C@@](N)(c1ccc(Cl)cc1)c1ccc2c(c1)c(-c1cccc(Cl)c1)cc(=O)n2C [Tipifarnib] + NC(=O)Nc1cc(-c2cccc(F)c2)sc1C(=O)N[C@H]1CCCNC1 [AZD7762] (partner 0.2 µM)
In short: as §1

Cell Line | relative viability (Tipifarnib + Crizotinib; first compound 0.01 µM) | relative viability (Tipifarnib + Crizotinib; first compound 0.03162 µM) | relative viability (Tipifarnib + Crizotinib; first compound 0.1 µM) | relative viability (Tipifarnib + Crizotinib; first compound 0.3162 µM) | relative viability (Tipifarnib + Crizotinib; first compound 1 µM) | relative viability (Tipifarnib + Palbociclib; first compound 0.01 µM) | relative viability (Tipifarnib + Palbociclib; first compound 0.03162 µM) | relative viability (Tipifarnib + Palbociclib; first compound 0.1 µM) | relative viability (Tipifarnib + Palbociclib; first compound 0.3162 µM) | relative viability (Tipifarnib + Palbociclib; first compound 1 µM) | relative viability (Tipifarnib + Vorinostat; first compound 0.01 µM) | relative viability (Tipifarnib + Vorinostat; first compound 0.03162 µM) | relative viability (Tipifarnib + Vorinostat; first compound 0.1 µM) | relative viability (Tipifarnib + Vorinostat; first compound 0.3162 µM) | relative viability (Tipifarnib + Vorinostat; first compound 1 µM) | relative viability (Tipifarnib + AZD7762; first compound 0.01 µM) | relative viability (Tipifarnib + AZD7762; first compound 0.03162 µM) | relative viability (Tipifarnib + AZD7762; first compound 0.1 µM) | relative viability (Tipifarnib + AZD7762; first compound 0.3162 µM) | relative viability (Tipifarnib + AZD7762; first compound 1 µM)
A549 | 0.499 | 0.313 | 0.238 | 0.155 | 0.121 |  |  |  |  |  |  |  |  |  |  |  |  |  |  | 
COR-L23 | 0.731 | 0.341 | 0.3 | 0.248 | 0.386 | 0.302 | 0.222 | 0.198 | 0.153 | 0.173 | 0.541 | 0.34 | 0.316 | 0.221 | 0.252 |  |  |  |  | 
COR-L 105 | 0.538 | 0.392 | 0.383 | 0.407 | 0.317 | 0.403 | 0.385 | 0.416 | 0.408 | 0.365 | 0.982 | 0.75 | 0.605 | 0.504 | 0.478 |  |  |  |  | 
Calu-6 | 0.694 | 0.566 | 0.452 | 0.434 | 0.344 |  |  |  |  |  |  |  |  |  |  |  |  |  |  | 
EBC-1 | 0.195 | 0.198 | 0.215 | 0.206 | 0.172 |  |  |  |  |  |  |  |  |  |  |  |  |  |  | 
IA-LM | 0.533 | 0.548 | 0.291 | 0.272 | 0.263 |  |  |  |  |  |  | 0.539 | 0.277 | 0.238 | 0.249 |  |  |  |  | 
NCI-H520 | 1.05 | 0.598 | 0.645 | 0.341 | 0.345 | 0.181 | 0.238 | 0.254 | 0.162 | 0.2 | 0.781 | 0.695 | 0.599 | 0.515 | 0.47 |  |  |  |  | 
NCI-H522 |  |  |  |  |  | 0.9 | 1.2 | 1.07 | 0.898 | 0.923 | 0.908 | 0.761 | 0.835 | 0.776 | 0.806 | 0.925 | 1.03 | 0.875 | 0.754 | 0.662
NCI-H596 | 1.09 | 0.974 | 1.03 | 0.945 | 0.813 |  |  |  |  |  | 1.11 | 0.462 | 0.467 | 0.456 | 0.434 | 1.1 | 1.09 | 1.08 | 0.822 | 0.776
NCI-H661 | 1.02 | 0.935 | 0.785 | 0.837 | 0.786 | 0.435 | 0.349 | 0.36 | 0.315 | 0.35 | 0.822 | 0.657 | 0.684 | 0.558 | 0.569 |  |  |  |  | 
NCI-H1299 | 0.903 | 0.841 | 0.795 | 0.832 | 0.81 |  |  |  |  |  |  |  |  |  |  |  |  |  |  | 
NCI-H1395 |  |  |  |  |  | 0.646 | 0.617 | 0.591 | 0.503 | 0.5 | 0.673 | 0.53 | 0.603 | 0.523 | 0.393 | 0.363 | 0.367 | 0.398 | 0.375 | 0.329
NCI-H1563 | 0.841 | 0.81 | 0.853 | 0.813 | 0.888 |  |  |  |  |  |  |  |  |  |  |  |  |  |  | 
NCI-H1650 | 0.47 | 0.454 | 0.401 | 0.324 | 0.337 | 0.295 | 0.211 | 0.243 | 0.205 | 0.183 | 0.415 | 0.399 | 0.306 | 0.253 | 0.212 |  |  |  |  | 
NCI-H1703 | 0.311 | 0.291 | 0.171 | 0.155 | 0.196 |  |  |  |  |  |  |  |  |  |  | 0.139 | 0.111 | 0.125 | 0.0872 | 0.14
NCI-H1792 | 1.02 | 0.888 | 0.742 | 0.54 | 0.438 | 0.642 | 0.621 | 0.522 | 0.512 | 0.479 |  |  |  |  |  | 0.722 | 0.417 | 0.373 | 0.237 | 0.173
NCI-H2009 | 0.994 | 1.01 | 0.789 | 0.563 | 0.578 | 0.204 | 0.206 | 0.193 | 0.298 | 0.152 | 0.604 | 0.411 | 0.405 | 0.577 | 0.504 |  |  |  |  | 
NCI-H2023 | 0.491 | 0.495 | 0.302 | 0.27 | 0.333 | 0.297 | 0.284 | 0.238 | 0.211 | 0.202 | 0.598 | 0.366 | 0.289 | 0.186 | 0.137 |  |  |  |  | 
NCI-H2228 | 0.413 | 0.443 | 0.45 | 0.293 | 0.348 | 0.971 | 0.599 | 0.353 | 0.551 | 0.29 | 0.398 | 0.453 | 0.493 | 0.314 | 0.3 |  |  |  |  | 
SK-LU-1 | 0.932 | 0.665 | 0.667 | 0.639 | 0.657 | 0.398 | 0.353 | 0.393 | 0.357 | 0.335 | 0.771 | 0.635 | 0.492 | 0.417 | 0.471 |  |  |  |  | 
SK-MES-1 | 0.974 | 0.864 | 0.95 | 0.69 | 0.656 | 0.337 | 0.3 | 0.304 | 0.245 | 0.3 | 1.14 | 0.99 | 1.05 | 0.842 | 0.57 |  |  |  |  | 
SW 1573 | 0.767 | 0.701 | 0.462 | 0.317 | 0.316 | 0.427 | 0.239 | 0.211 | 0.183 | 0.186 | 0.701 | 0.434 | 0.308 | 0.312 | 0.179 |  |  |  |  | 
UMC-11 | 0.24 | 0.278 | 0.224 | 0.181 | 0.184 | 0.342 | 0.306 | 0.295 | 0.273 | 0.262 | 0.314 | 0.348 | 0.338 | 0.291 | 0.307 |  |  |  |  | 
